{"source": "patent US20210024483A1", "about": "“HETEROCYLCOALKENYL DERIVATIVES USEFUL AS AGONISTS OF THE GPR120 AND / OR GPR40” (Janssen Pharmaceutica NV, priority 2018, published 2021)", "tested_on": "DIO mice (C57Bl6 on high fat diet)", "assay": "GPR120 DIO Mice OGTT Screening", "assay_type": "in vivo, mouse", "conditions": "3 mg/kg, glucose AUC −30 to 90 min, change from vehicle", "description": "GPR120 DIO Mice OGTT Screening\n18-22 week old, C57Bl6 mice on a high fat diet (60% HFD) for 12-16 weeks (average body weight ˜37-41 g) were fasted for 6 hr, with removal of food occurring at 7 am on the morning of the study. The animals were sorted into treatment groups the day before the study by body weight. Animals outside the bounds of ˜30-50 g were left out of the study. The animals had been handled and shammed a total of 5-8 days (1-3 days immediately prior to the study). Glucose (in 1 mL syringes) was drawn up the morning of the study. Test compounds were kept spinning and were only drawn into 1 ml syringes prior to study commencement. […]\nAnimals were moved into the testing room at ˜9-11 am, to yield them time to acclimate. […] All groups were dosed 30 minutes prior to glucose administration at a dose volume of 10 ml/kg (the dose volume was calculated separately for each individual animal). […]\nThirty minutes after the first dose (with test compound) animals were bled again for a second baseline, or T=0, and immediately dosed with glucose (20% solution; TEKNOVA, 250 ml sterile bottle w/catalogue number G0525) via a PO injection. The exact dose volume for glucose was also calculated separately for each individual animal.\nBlood glucose was measured at 15, 30, 45, 60, and 90 minutes post-glucose administration via the snipped tail. […]"}
{"compound": "Cc1c(CCC(=O)O)ccc(OCC2=C(c3ccc(Cl)cc3)COCC2)c1C", "note": "[ID No. 745, 3-[4-[[5-(4-chlorophenyl)-3,6-dihydro-2H-pyran-4-yl]methoxy]-2,3-dimethyl-phenyl]propanoic acid]", "values": [{"measurement": "DIO lowering (−30 to 90)", "result": "−63", "unit": "%"}]}
